Structures can show the parent of a compound that is named as a salt.
Columns and labels:
Format in all cases: functional, cell-based
[1] = test system: K562; assay: Cytotoxicity against human K562 cells assessed as reduction in cell viability after 48 hrs by MTT assay; settings: K562, 48 h
[2] = test system: HCT-116; assay: Cytotoxicity against human HCT-116 cells assessed as reduction in cell viability after 48 hrs by SRB assay; settings: HCT-116, 48 h
[3] = test system: HeLa; assay: Cytotoxicity against human HeLa cells assessed as reduction in cell viability after 48 hrs by SRB assay
[4] = test system: HL-60; assay: Cytotoxicity against human HL-60 cells assessed as reduction in cell viability after 48 hrs by MTT assay; settings: HL-60, 48 h

For `COc1cccc2c1C(=O)c1c(O)c3c(c(O)c1C2=O)C[C@@](O)(C(=O)CO)C[C@@H]3O[C@H]1C[C@H](N)[C@H](O)[C@H](C)O1` [DOXORUBICIN HYDROCHLORIDE], the IC50 [1] was 0.2 µM.

In the case of `CC(=O)[C@H]1c2cc3c(-c4ccc(O)c5c(O)c6c(cc45)[C@H](C(C)=O)[C@@](C)(O)CC6=O)ccc(O)c3c(O)c2C(=O)C[C@]1(C)O`, the IC50 [2] is reported as > 10 µM, the IC50 [3] is reported as > 10 µM and the IC50 [1] is reported as > 10 µM. The IC50 [4] was > 10 µM.

In the case of `CC(=O)[C@H]1c2cc3cccc(O)c3c(O)c2C(=O)C[C@]1(C)O`, the IC50 [2] is reported as > 10 µM, the IC50 [3] is reported as > 10 µM and the IC50 [1] is reported as > 10 µM. For the same compound, the IC50 [4] was > 10 µM.

In the case of `CC(=O)[C@H]1c2cc3c(-c4c5c(c(O)c6c(O)cccc46)C(=O)C[C@](C)(O)[C@H]5C(C)=O)ccc(O)c3c(O)c2C(=O)C[C@]1(C)O`, the IC50 [2] is reported as > 10 µM, the IC50 [3] is reported as 5.1 µM and the IC50 [1] is reported as 10 µM. The IC50 [4] was 6.2 µM.

In the case of `CC(=O)[C@H]1c2c(c(O)c3c(O)cccc3c2-c2c3c(c(O)c4c(O)cccc24)C(=O)C[C@](C)(O)[C@H]3C(C)=O)C(=O)C[C@]1(C)O`, the IC50 [2] is reported as > 10 µM, the IC50 [3] is reported as 1.8 µM and the IC50 [1] is reported as 5.1 µM. For the same compound, the IC50 [4] was > 10 µM.

`CC(=O)[C@H]1c2cc3ccc(-c4c5c(c(O)c6c(O)cccc46)C(=O)C[C@](C)(O)[C@H]5C(C)=O)c(O)c3c(O)c2C(=O)C[C@]1(C)O` was tested, and the IC50 [2] was > 10 µM, the IC50 [3] was > 10 µM and the IC50 [1] was > 10 µM. For the same compound, the IC50 [4] was > 10 µM.

Reference: ChEMBL document CHEMBL4699474, “Dimeric Tetrahydroanthracene Regioisomers and Their Monomeric Precursor Produced by Streptomyces fumigatiscleroticus HDN10255” (J Nat Prod, 2020)
